Data as given in ChEMBL document CHEMBL1795339, “Novel purine-based fluoroaryl-1,2,3-triazoles as neuroprotecting agents: synthesis, neuronal cell culture investigations, and CDK5 docking studies” (Bioorg Med Chem Lett, 2011).
Activity calls are given as the source filed them. The rule behind the calls is not given here.

System: Hippocampal neuron
Test: Neuroprotective activity against Amyloid beta-induced mouse hippocampal neuronal death at 1 uM pretreated for 1 hr before Amyloid beta treatment measured after 48 hrs using propidium iodide staining by fluorescence […] microscopy
Type: functional, tissue-based
Conditions: Hippocampus

Row | SMILES | Activity
1 | Fc1c(F)c(F)c(Cn2cc(Cn3cnc4c(NCc5ccccc5)nc(Cl)nc43)nn2)c(F)c1F | inactive
2 | Fc1cccc(F)c1Cn1cc(Cn2cnc3c(NCc4ccccc4)nc(Cl)nc32)nn1 | Active
3 | Clc1nc(NCc2ccccc2)c2ncn(Cc3cn(Cc4ccccc4)nn3)c2n1 | Active
4 | CC[C@H](CO)Nc1nc(NCc2ccccc2)c2ncn(C(C)C)c2n1 | Active
5 | CN1CC[C@H](c2c(O)cc(O)c3c(=O)cc(-c4ccccc4Cl)oc23)[C@H](O)C1 | Active
6 | Fc1ccccc1Cn1cc(Cn2cnc3c(NCc4ccccc4)nc(Cl)nc32)nn1 | Active
